Data set [1] is described as follows: MTT cytotoxicity / cell viability of keratinocytes. Format: cell-based. As to conditions: keratinocytes, throughout the selected concentration range (0.01-0.3 wt.%), threshold value of 70%, read-out: viability of skin and epithelial keratinocytes. The protocol:
(§1) Beta-caryophyllene was studied for cytotoxicity and assessed for viability of skin and mucous membrane keratinocytes to determine the maximum permissible concentration for external and local application.
(§2) Cell viability was determined colorimetrically using MTT stain (Sigma Chemical, St. Louis, Mo.). The preparation was treated for the test in dimethylsulphoxide culture medium and added to a 96-well plate at serial dilutions ranging from 1.000 to 0.0032 mg/mL using a dilution factor of 3.16. Pre-culture was carried out for 48 hours before the test. Then MTT was added to the culture at a concentration of 0.75 mg/mL (100 µl/well) and incubated for another 4 hours. The contents of the well were removed, and 100 µl of isopropanol was added to solubilize the formed formazan crystals. Absorbance was determined in each well at 570 nm using a Multiskan GO monochromator (Thermo Scientific, Finland). Cell viability was expressed as a percentage and calculated by the equation: % Viable cells = (Absorbance of evaluated product incubated cells)/(Control absorbance) × 100 [formula]
(§3) Three biological replicates were made. Statistical data processing was carried out to calculate the mean, standard deviation, and trend for each biological replicate. For the statistical evaluation ANOVA test was used allowing the measurement of variation of the results, comparing the data between all the groups. […]

The subject of data set [2] is skin and mucous membrane keratinocytes. The experiment in a line: MTT cytotoxicity / cell viability of keratinocytes. Format: cell-based. As to conditions: 70% cell survival. The protocol: as §1, §2, §3

In brackets after ≈: the same amount, converted by molar mass. Where only a bound is given, the exact number is not on record here.

We go through one compound from patent EP4578444A1, “APPLICATION OF BETA-CARYOPHYLLENE FOR TARGETED EPIGENETIC REGULATION AND POTENTIAL PREVENTION OF WATER-OSMOTIC CONDITIONS OF THE MUCOUS MEMBRANES AND EPITHELIA” (SkyLab AG, priority 2023, dated 2025).

The viability is a read-out of living cells in per cent, often relative to untreated cells. The EC70 is the point of the concentration-response curve where the effect stands at 70%. A lower EC70 goes with an effect from little substance. Consider `C=C1CC/C=C(\C)CC[C@@H]2[C@@H]1CC2(C)C` [Beta-caryophyllene], for which the viability in data set [1] is more than 70%. This compound also displayed an EC70 in data set [2] of 316.5 µg/mL (≈ 1550 µM).
